Assay [1] deals with MDA-MB-231. Put plainly: Antitumor activity against human MDA-MB-231 cells xenografted in triple-negative breast cancer xenograft model assessed as tumor growth inhibition at 30 mg/kg relative to control. It counts as functional. To be noted: read-out: TGI. In general terms: A xenograft is tissue or cells of one species grown in another, often human tumour cells in immunodeficient mice.

In assay [2] the test system is MDA-MB-231. In words: Antitumor activity against human MDA-MB-231 cells xenografted in triple-negative breast cancer xenograft model assessed as tumor growth inhibition at 15 mg/kg relative to control. Conditions: read-out: TGI. Format: functional.
Assay [3] concerns Staphylococcus aureus. Put plainly: Potentiation of gentamicin-induced antibiofilm activity against Staphylococcus aureus assessed as disruption of preformed biofilm by measuring fold increase in gentamicin activity. It counts as functional.
Assay [4] deals with Staphylococcus aureus. Put plainly: Potentiation of vancomycin-induced antibiofilm activity against Staphylococcus aureus assessed as disruption of preformed biofilm by measuring fold increase in vancomycin activity. Format: functional.
The next assay has as its system HCT-116. Put plainly: Antiproliferative activity against human HCT-116 cells.
The test system of another assay is Staphylococcus sp. Put plainly: Antibacterial activity against Staphylococcus species. It counts as functional.
Another assay deals with Acinetobacter. In words: Antibacterial activity against Acinetobacter. It counts as functional.
The next assay relates to B16. Put plainly: Cytotoxicity against mouse B16 cells. Format: functional, cell-based.

Molecules are shown by their SMILES. Converted amounts (≈) assume the structure as drawn.

By IC50 is commonly meant the concentration that inhibits the measured activity by half. A lower IC50 goes with greater potency. One may read the MIC as the least concentration at which growth counts as inhibited.

`CC(C)C[C@@H](CO)N1CCc2c(oc3c2C(=O)C(=O)c2ccccc2-3)C1`: the inhibition in vivo at 30 mg/kg in the assay on MDA-MB-231 [1] came to 60.4%. The inhibition in vivo at 15 mg/kg in the assay with MDA-MB-231 [2] turned out to be 42.2%.

Regarding `CC(=O)[C@H](C)C[C@@H](C)C[C@H](C)C(=O)C1=C(O)/C(=C/c2ccccc2)NC1=O`, the figures for the “fold change (FC)” value in the assay on Staphylococcus aureus [3] and in the assay with Staphylococcus aureus [4] were 115 and 31, respectively.

As to `COc1ccc2cc(NC(=O)C3=NO[C@H]4[C@H](O)C=C[C@@H](Cl)[C@@]4(O)C3)c(=O)oc2c1OC` [TRICHODERMAMIDE B], the IC50 with HCT-116 is 0.12 µM.

Take `C#CC[C@H](NC(=O)c1ccc(NC(=O)c2ccc(C#N)cc2)cc1)C(=O)Nc1ccc(C(=O)Nc2ccc(C(=O)Nc3ccc(C(=O)O)cc3)c(O)c2OC(C)C)cc1`: the MIC with Staphylococcus sp. and in the assay with Acinetobacter was 0.06 µg/mL (≈ 0.0757 µM) each time.

As for `COC[C@@H](OC)C(=O)O[C@H](CC[C@H](C)[C@H](C[C@@H]1OC(=O)C[C@@H](O)C/C=C/C(=O)[C@H](C)[C@H](OC)c2coc(n2)-c2coc(n2)-c2coc(n2)/C=C\C[C@H](OC)[C@H]1C)OC)[C@H](C)[C@H](OC(C)=O)[C@H](C)/C=C/N(C)C=O`, in the assay on B16, the IC50 was determined as 0.0005 µM.
